≈ marks a conversion by molar mass, not a printed value. Where two headings read alike, the source gives them in different places.
How the values were obtained:
Pyricularia oryzae [1] = format: in vivo, Pyricularia oryzae on rice plant (variety: Asahi); settings: rice blast, prevention; 200 ppm; 5 days after inoculation
Pyricularia oryzae [2] = format: in vivo, Pyricularia oryzae on rice plant (variety: Asahi); settings: rice blast, curative treatment; sprayed liquid 200 ppm; 5 days after spraying
Cochliobolus miyabeanus [3] = assay: Effect of controlling rice brown spot, Experimental Example 3; format: in vivo, Cochliobolus miyabeanus on rice plant (variety: Asahi); settings: sprayed liquid 500 ppm, 5 days after inoculation
Sphaerotheca friliginea = assay: Effect of controlling cucumber powdery mildew, Experimental Example 4; format: in vivo; settings: sprayed liquid 200 ppm, 10 days after inoculation
Method: 10 ml of each of test liquids diluted to a predetermined concentration was sprayed over seedlings of a cucumber plant (variety: Sagami Hanpaku) grown up to the first leaf stage which has been soil cultured in an unglazed pot with a diameter of 9 cm in a green house. After allowing to stand overnight, the seedlings were sprayed for inoculation with a spore suspension of Sphaerotheca friliginea. Ten days after the inoculation, the rate of a lesion area (%) was checked and a control value was evaluated from the following equation. The degree of chemical injury against a cucumber plant was determined in the same manner as in Experimental Example.

Alternaria padwikii = assay: Antimicrobial activity (mycelium growth inhibition, PDA medium); format: cell-based; settings: 24° C., read-out: ED50 value
Method: (§1) Experimental Example 5 (Test for Antimicrobial Activity Against Various Plant Phathogenic Fungi)
(§2) 1 ml of an acetone solution of each of test compounds and 20 ml of the PDA medium (50° C.) to prepare media containing the chemical in different concentrations, followed by charging into a petri dish with a diameter of 9 cm where it was solidified flat. On the central portion of the chemical-containing medium was inoculated a fungus-containing medium a piece of ager black-containing mycelia which was obtained by punching by means of a cork borer the tip portion of mycelia of each test fungus which had been cultured in advance in the PDA medium, followed by cultivating at 24° C. Two to six days after the cultivation, the diameter of the mycelia was measured and mycelium growth inhibiting rate was calculated from a comparison with that of a non-treated plot. The mycelium growth inhibiting rate was plotted on a logarithmic probability paper to determine an ED50 value.

Botrytis cinerea = assay: as above; format: cell-based; settings: 24° C., read-out: ED50 value
Method: as §1, §2

Curvularia sp. = assay: as above; format: cell-based; settings: 24° C., read-out: ED50 value
Method: as §1, §2

Diaporthe citri = assay: as above; format: cell-based; settings: 24° C., read-out: ED50 value
Method: as §1, §2

Endothia parasitica = assay: as above; format: cell-based; settings: Cryphonectria parasitica, 24° C., read-out: ED50 value
Method: as §1, §2

Fusarium nivale = assay: as above; format: cell-based; settings: Microdochium nivale, 24° C., read-out: ED50 value
Method: as §1, §2

Glomerella cingulata = assay: as above; format: cell-based; settings: Colletotrichum gloeosporioides, 24° C., read-out: ED50 value
Method: as §1, §2

[4] = test system: Helminthosporium gramineum; assay: as above; format: cell-based; settings: 24° C., read-out: ED50 value
Method: as §1, §2

Mycosphaerella melonis = assay: as above; format: cell-based; settings: 24° C., read-out: ED50 value
Method: as §1, §2

Pellicularia sasakii = assay: as above; format: cell-based; settings: 24° C., read-out: ED50 value
Method: as §1, §2

Penicillium digitatum = assay: as above; format: cell-based; settings: 24° C., read-out: ED50 value
Method: as §1, §2

Phizoctonia solani = assay: as above; format: cell-based; settings: 24° C., read-out: ED50 value
Method: as §1, §2

Phoma lingam = assay: as above; format: cell-based; settings: Plenodomus lingam, 24° C., read-out: ED50 value
Method: as §1, §2

Sclerotinia fructigena = assay: as above; format: cell-based; settings: 24° C., read-out: ED50 value
Method: as §1, §2

Sclerotinia sclerotiorum = assay: as above; format: cell-based; settings: 24° C., read-out: ED50 value
Method: as §1, §2

Cochliobolus miyabeanus [5] = assay: as above; format: cell-based; settings: Bipolaris oryzae, read-out: ED50 value
Pyricularia oryzae [6] = assay: microbe, parasite or virus in culture; format: cell-based; settings: read-out: ED50 value
rice plant [7] = settings: blast prevention test, 200 ppm
rice plant [8] = settings: blast curative test, 200 ppm
rice plant [9] = settings: in vivo
cucumber plant = settings: in vivo
[10] = Annual Report of the Takeda's Research Institute, Vol. 24, pages 250-258 (1965); cited from earlier work

SMILES	Control Value (Pyricularia oryzae [1])	Control Value (Pyricularia oryzae [2])	Control Value (Cochliobolus miyabeanus [3])	Control Value (Sphaerotheca friliginea)	IC50 (Alternaria padwikii)	IC50 (Botrytis cinerea)	IC50 (Curvularia sp.)	IC50 (Diaporthe citri)	IC50 (Endothia parasitica)	IC50 (Fusarium nivale)	IC50 (Glomerella cingulata)	IC50 [4]	IC50 (Mycosphaerella melonis)	IC50 (Pellicularia sasakii)	IC50 (Penicillium digitatum)	IC50 (Phizoctonia solani)	IC50 (Phoma lingam)	IC50 (Sclerotinia fructigena)	IC50 (Sclerotinia sclerotiorum)	IC50 (Cochliobolus miyabeanus [5])	other results
Cc1cc(C)n(-c2nc(C)c(C)c(Oc3ccccc3)n2)n1 [Compound 38]	100%	100%	87%	100%	1.7 µg/mL (≈ 5.78 µM)	8.8 µg/mL (≈ 29.9 µM)	1.5 µg/mL (≈ 5.1 µM)	3.8 µg/mL (≈ 12.9 µM)	6.2 µg/mL (≈ 21.1 µM)	2.7 µg/mL (≈ 9.17 µM)	7.3 µg/mL (≈ 24.8 µM)	3.2 µg/mL (≈ 10.9 µM)	4 µg/mL (≈ 13.6 µM)	1.2 µg/mL (≈ 4.08 µM)	1.4 µg/mL (≈ 4.76 µM)	2 µg/mL (≈ 6.79 µM)	2.7 µg/mL (≈ 9.17 µM)	1.6 µg/mL (≈ 5.44 µM)	3.6 µg/mL (≈ 12.2 µM)	2.8 µg/mL (≈ 9.51 µM)	IC50 (Pyricularia oryzae [6]): 0.04 µg/mL (≈ 0.136 µM); Degree of chemical injury (rice plant [7]): 0; Degree of chemical injury (rice plant [8]): 0; Degree of chemical injury (rice plant [9]): 0; Degree of chemical injury (cucumber plant): 0
Cc1cc(C)n(-c2ncc(C)c(Sc3ccccc3)n2)n1 [Compound 35]	84%	95%	92%	100%	1 µg/mL (≈ 3.37 µM)	9.6 µg/mL (≈ 32.4 µM)	1.8 µg/mL (≈ 6.07 µM)	4.6 µg/mL (≈ 15.5 µM)	6.8 µg/mL (≈ 22.9 µM)	2.6 µg/mL (≈ 8.77 µM)	9.6 µg/mL (≈ 32.4 µM)	6.3 µg/mL (≈ 21.3 µM)	2 µg/mL (≈ 6.75 µM)	1.3 µg/mL (≈ 4.39 µM)	0.8 µg/mL (≈ 2.7 µM)	2.8 µg/mL (≈ 9.45 µM)	4.6 µg/mL (≈ 15.5 µM)	0.7 µg/mL (≈ 2.36 µM)	6.1 µg/mL (≈ 20.6 µM)	4.3 µg/mL (≈ 14.5 µM)	IC50 (Pyricularia oryzae [6]): 0.2 µg/mL (≈ 0.675 µM); Degree of chemical injury (rice plant [7]): 0; Degree of chemical injury (rice plant [8]): 0; Degree of chemical injury (rice plant [9]): 0; Degree of chemical injury (cucumber plant): 0
CCCCc1c(C)nc(-n2nc(C)cc2C)nc1OCC [Compound 41]	100%	100%	100%	94%	0.7 µg/mL (≈ 2.43 µM)	4.5 µg/mL (≈ 15.6 µM)	1.6 µg/mL (≈ 5.55 µM)	2 µg/mL (≈ 6.93 µM)	4.6 µg/mL (≈ 16 µM)	0.2 µg/mL (≈ 0.693 µM)	4.1 µg/mL (≈ 14.2 µM)	2.8 µg/mL (≈ 9.71 µM)	0.7 µg/mL (≈ 2.43 µM)	1.1 µg/mL (≈ 3.81 µM)	1.1 µg/mL (≈ 3.81 µM)	1.4 µg/mL (≈ 4.85 µM)	2.6 µg/mL (≈ 9.02 µM)	1.5 µg/mL (≈ 5.2 µM)	3.8 µg/mL (≈ 13.2 µM)	1.4 µg/mL (≈ 4.85 µM)	IC50 (Pyricularia oryzae [6]): 0.01 µg/mL (≈ 0.0347 µM); Degree of chemical injury (rice plant [7]): 0; Degree of chemical injury (rice plant [8]): 0; Degree of chemical injury (rice plant [9]): 0; Degree of chemical injury (cucumber plant): 0
Cc1cc(C)n(-c2nccc(Sc3ccccc3)n2)n1 [Compound 4]	100%	100%	85%	90%	1.2 µg/mL (≈ 4.25 µM)	6.5 µg/mL (≈ 23 µM)	0.7 µg/mL (≈ 2.48 µM)	2.7 µg/mL (≈ 9.56 µM)	1.9 µg/mL (≈ 6.73 µM)	5.3 µg/mL (≈ 18.8 µM)	4.1 µg/mL (≈ 14.5 µM)	2.4 µg/mL (≈ 8.5 µM)	5.2 µg/mL (≈ 18.4 µM)	1.2 µg/mL (≈ 4.25 µM)	1.3 µg/mL (≈ 4.6 µM)	1.1 µg/mL (≈ 3.9 µM)	2.1 µg/mL (≈ 7.44 µM)	0.4 µg/mL (≈ 1.42 µM)	3.2 µg/mL (≈ 11.3 µM)	4.6 µg/mL (≈ 16.3 µM)	IC50 (Pyricularia oryzae [6]): 0.1 µg/mL (≈ 0.354 µM); Degree of chemical injury (rice plant [7]): 0; Degree of chemical injury (rice plant [8]): 0; Degree of chemical injury (rice plant [9]): 0; Degree of chemical injury (cucumber plant): 0
Cc1cc(SC#N)nc(-n2nc(C)cc2C)n1 [Comparative Chemical 3, 2-(3,5-dimethyl-1-pyrazolyl)-4-methyl-6-thiocyanopyrimidine]	–	–	–	–	–	–	–	–	–	–	–	–	–	–	–	–	–	–	–	–	chemical injury [10]: violent chemical injury
